Values of other authors as cited in patent publication US20200061095A1, “Compounds for the Treatment of Systemic Insulin Resistance Disorders and the Use Thereof” (Galectin Sciences, LLC, priority 2017, published 2020).

Tests used:
Galectin 3 = Galectin 3 (Homo sapiens, UniProt P17931); settings: reported
lung fibrosis = settings: pulmonary administration, intra-tracheal instillation or nebulizers

Sequence of Galectin 3 (P17931 whole entry, species assumed): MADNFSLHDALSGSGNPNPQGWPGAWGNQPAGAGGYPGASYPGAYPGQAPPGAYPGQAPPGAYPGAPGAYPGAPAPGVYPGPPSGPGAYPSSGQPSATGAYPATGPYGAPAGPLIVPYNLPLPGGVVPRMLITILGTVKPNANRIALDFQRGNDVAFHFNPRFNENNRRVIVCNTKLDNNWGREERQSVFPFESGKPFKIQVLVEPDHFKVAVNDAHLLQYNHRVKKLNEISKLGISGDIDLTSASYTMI

OC[C@H]1O[C@@H](S[C@@H]2O[C@H](CO)[C@H](O)[C@H](n3cc(-c4cccc(F)c4)nn3)[C@H]2O)[C@H](O)[C@@H](n2cc(-c3cccc(F)c3)nn2)[C@H]1O [TD-139]
binding to Galectin 3 (Galectin 3): bind to Galectin 3
efficacy in mouse model of lung fibrosis (lung fibrosis): effective
